Entries after “also recorded” stand apart in the source; their conditions may differ.
How the values were obtained:
Format in all cases: cell-based, human
PAX2 protein = assay: Western blot analysis of PAX2 protein; conditions: DU145; 5 uM Los, 25 uM U0126, 20 uM PD98059, 250 μM AICAR
Experimental: Briefly, cells were harvested by trypsinization and washed twice with PBS. Lysis buffer was prepared according to the manufacturer's instructions (Sigma), and was then added to the cells. Following a 15 minute incubation period at 4° C. on an orbital shaker, cell lysate were then collected and centrifuged for 10 minutes at 12000×g to pellet cellular debris. The protein-containing supernatant were then collected and quantitated. Next, 25 μg protein extract was loaded onto an 8-16% gradient SDS-PAGE (Novex). Following electrophoresis, proteins were transferred to PVDF membranes, and then blocked with 5% nonfat dry milk in TTBS (0.05% Tween 20 and 100 mM Tris-C1) for 1 hour. Blots were then probed with rabbit anti-PAX2 primary antibody (Zymed, San Francisco, Calif.) at a 1:2000 dilution. After washing, the membranes were incubated with anti-rabbit antibody conjugated to horseradish peroxidase (HRP) (dilution 1:5000; Sigma), and signal detection was visualized using chemilluminescence reagents (Pierce) on an Alpha Innotech Fluorchem 8900. As a control, blots were stripped and reprobed with mouse anti-β-actin primary antibody (1:5000; Sigma-Aldrich) and HRP-conjugated anti-mouse secondary antibody (1:5000; Sigma-Aldrich) and signal detection was again visualized.
(§1) Western blot analysis was performed as described in Example 2. Blots were then probed with primary antibody (anti-PAX2, -phospho-PAX2, -JNK, -phospho-JNK, -ERK1/2, or -phospho-ERK1/2) (Zymed, San Francisco, Calif.) at 1:1000-2000 dilutions. After washing, the membranes were incubated with anti-rabbit antibody conjugated to horseradish peroxidase (HRP) (dilution 1:5000; Sigma), and signal detection was visualized using chemilluminescence reagents (Pierce) on an Alpha Innotech Fluorchem 8900. As a control, blots were stripped and re-probed with mouse anti-β-actin primary antibody (1:5000; Sigma-Aldrich) and HRP-conjugated anti-mouse secondary antibody (1:5000; Sigma-Aldrich), and signal detection was again visualized.

phospho-STAT3 = assay: Western blot of phospho-STAT3; conditions: DU145
Experimental: as §1, with “Blots were then probed with primary antibody (anti-PAX2, -phospho-PAX2, -JNK, -phospho-JNK, -ERK1/2, or -phospho-ERK1/2) (Zymed, San Francisco, Calif.) at 1:1000-2000 dilutions.” left out

phospho-JNK = assay: Western blot of phospho-JNK; conditions: DU145
Experimental: as §1, with “Blots were then probed with primary antibody (anti-PAX2, -phospho-PAX2, -JNK, -phospho-JNK, -ERK1/2, or -phospho-ERK1/2) (Zymed, San Francisco, Calif.) at 1:1000-2000 dilutions.” left out

phospho-PAX2 = assay: Western blot of phospho-PAX2; conditions: DU145
Experimental: as §1, with “Blots were then probed with primary antibody (anti-PAX2, -phospho-PAX2, -JNK, -phospho-JNK, -ERK1/2, or -phospho-ERK1/2) (Zymed, San Francisco, Calif.) at 1:1000-2000 dilutions.” left out

DEFB1 = assay: QRT-PCR of DEFB1 (hBD-1) expression; conditions: 10 μM
Experimental: Briefly, total RNA was isolated using the SV Total RNA Isolation System (Promega, Madison, Wis.) from approximately 1×10^6 cells harvested by trypsinizing. Cells were lysed and total RNA was isolated by centrifugation through spin columns. For cells collected by LCM, total RNA was isolated using the PicoPure RNA Isolation Kit (Arcturus Biosciences, Mt. View, Calif.) following the manufacturer's protocol. Total RNA (0.5 μg per reaction) from both sources was reverse transcribed into cDNA utilizing random primers (Promega). AMV Reverse Transcriptase II enzyme (500 units per reaction; Promega) was used for first strand synthesis and Tfl DNA Polymerase for second strand synthesis (500 units per reaction; Promega) as per the manufacturer's protocol. In each case, 50 pg of cDNA was used per ensuing PCR reaction. Two-step QRT-PCR was performed on cDNA generated using the MultiScribe Reverse Transcripatase from the TaqMan Reverse Transcription System and the SYBR® Green PCR Master Mix (Applied Biosystems).
Forty cycles of PCR were performed under standard conditions using an annealing temperature of 56° C. In addition, β-actin (Table 2) was amplified as a housekeeping gene to normalize the initial content of total cDNA. […]
Quantitative real-time RT-PCR was performed as described in Example 1 to verify changes in gene expression following PAX2 knockdown in PC3 and DU145 prostate cancer cell lines and the hPrEC normal prostate epithelial cells. […] Quantification was determined by the cycle number where exponential amplification began (threshold value) and averaged from the values obtained from the triplicate repeats. […] Relative expression was calculated as the ratio between each genes and GAPDH. […]
QRT-PCR was performed as previously described (Gibson et al., 2007). […] Gene expression in benign prostate tissue samples was calculated as the expression ratio compared to β-actin. Levels of hBD-1 expression in malignant prostate tissue, hPREC prostate primary culture, and prostate cancer cell lines before and after induction were calculated relative to the average level of hBD-1 expression in hPrEC cells. […]

PAX2 = PAX2 expression after treatment with AngII or receptor blockers; conditions: for reduction of PAX2 expression: versus untreated control
Experimental: Western blot analysis was performed as described in Example 2. […] After washing, the membranes were incubated with anti-rabbit antibody conjugated to horseradish peroxidase (HRP) (dilution 1:5000; Sigma), and signal detection was visualized using chemilluminescence reagents (Pierce) on an Alpha Innotech Fluorchem 8900. As a control, blots were stripped and re-probed with mouse anti-β-actin primary antibody (1:5000; Sigma-Aldrich) and HRP-conjugated anti-mouse secondary antibody (1:5000; Sigma-Aldrich), and signal detection was again visualized. Quantitative real-time RT-PCR was performed as described in Example 1 to verify changes in gene expression following PAX2 knockdown in PC3 and DU145 prostate cancer cell lines and the hPrEC normal prostate epithelial cells. Forty cycles of PCR were performed under standard conditions using an annealing temperature of 60° C. Quantification was determined by the cycle number where exponential amplification began (threshold value) and averaged from the values obtained from the triplicate repeats. There was an inverse relationship between message level and threshold value. In addition, GAPDH was used as a housekeeping gene to normalize the initial content of total cDNA. Relative expression was calculated as the ratio between each genes and GAPDH. All reactions were carried out in triplicate.

DU145 cells = assay: [3H]thymidine incorporation proliferation assay
Experimental: Proliferation of cells was determined by [^3H] thymidine ribotide ([3H]TdR) incorporation into DNA. 0.5×10^6 cells/well of suspension DU145 cells were plated in their appropriate media. Cells were incubated for 72 h with or without the presence of AngII at the indicated concentrations. Cells were exposed to 37 kBq/ml [methyl-3H]thymidine in the same medium for 6 h. The adherent cells were fixed by 5% trichloroacetic acid and lysed in SDS/NaOH lysis buffer overnight. Radioactivity was measured by Beckman LS3801 liquid scintillation counter (Canada). Suspension cell cultures were harvested by cell harvester (Packard Instrument Co., Meriden, Conn.), and radioactivity was measured by 1450 microβ liquid scintillation counter (PerkinElmer Life Sciences).

phospho-ERK 1/2 = assay: Western blot of phospho-ERK 1/2; conditions: DU145
Experimental: as §1, with “Blots were then probed with primary antibody (anti-PAX2, -phospho-PAX2, -JNK, -phospho-JNK, -ERK1/2, or -phospho-ERK1/2) (Zymed, San Francisco, Calif.) at 1:1000-2000 dilutions.” left out

ERK = assay: Western blot of ERK; conditions: DU145
Experimental: as §1, with “Blots were then probed with primary antibody (anti-PAX2, -phospho-PAX2, -JNK, -phospho-JNK, -ERK1/2, or -phospho-ERK1/2) (Zymed, San Francisco, Calif.) at 1:1000-2000 dilutions.” left out

In the case of N#CC(=C(/N)Sc1ccccc1N)/C(C#N)=C(\N)Sc1ccccc1N [Drug U0126, U0126], the “PAX2 expression / protein levels” value (PAX2 protein) was “significant reduction of PAX2 expression; also recorded: suppress PAX2 protein levels”, the phospho-STAT3 protein levels (phospho-STAT3) was “reduced phospho-STAT3 protein levels; also recorded: suppress phospho-STAT3 protein levels” and the phospho-JNK protein levels (phospho-JNK) was “did not decrease phospho-JNK protein levels; also recorded: failed to decrease phospho-JNK protein levels”. For the same molecule, the phospho-PAX2 protein levels (phospho-PAX2) was “significant decrease or suppression of phospho-PAX2 protein levels; also recorded: suppress phospho-PAX2 protein expression levels”.

In the case of Angiotensin II (DRVYIHPF) [AngII], the “decrease in DEFB1 expression relative to untreated hPrEC cells” value (DEFB1; 72 hours) was 35%, the “decrease in DEFB1 expression relative to untreated hPrEC cells” value (DEFB1; 96 hours) was 50% and the “increase in DEFB1 relative to untreated hPrEC cells” value (DEFB1; 96 hours) was 79%. The PAX2 expression (PAX2; DU145, 30 min to 48 hour AngII treatment) was “progressively increased over time”, the “increase in PAX2 expression relative to untreated hPrEC cells” value (PAX2; hPrEC, 10 μM, 72 hours) was 66% and the “PAX2 expression in hPrEC as % of PAX2 levels in PC3 cells” value (PAX2; hPrEC, 72 hours) was 77%. For the same molecule, the “PAX2 expression in hPrEC as % of PAX2 expression in PC3 cells” value (PAX2; hPrEC, 96 hours) was 89% and the proliferation rate (DU145 cells; DU145, AngII treatment) was “two- to three-fold increase; also recorded: increases DU145 cell proliferation”.

In the case of CCCCc1nc(Cl)c(CO)n1Cc1ccc(-c2ccccc2-c2nn[nH]n2)cc1 [Los, Losartan], the “PAX2 expression / protein levels” value (PAX2 protein) was “significant reduction of PAX2 expression; also recorded: suppress PAX2 protein levels”, the phospho-STAT3 protein levels (phospho-STAT3) was “reduced phospho-STAT3 protein levels; also recorded: suppress phospho-STAT3 protein levels” and the phospho-ERK (phospho-ERK 1/2) was “reduced the amount of phospho-ERK; also recorded: suppresses phospho-ERK 1/2 and PAX2 protein levels”. For the same molecule, the phospho-JNK protein levels (phospho-JNK) was “did not decrease phospho-JNK protein levels; also recorded: failed to decrease phospho-JNK protein levels”, the “effect on AngII effect on PAX2 expression” value (PAX2; DU145) was “blocks the effect of Angiotensin II (AngII) effect on PAX2 expression” and the “reduction of PAX2 expression” value (PAX2; DU145, 48 hours) was 37%. The “reduction of PAX2 expression” value (PAX2; DU145, 72 hours) was 50%, the ERK protein levels (ERK) was “no effect on ERK protein levels” and the phospho-PAX2 protein levels (phospho-PAX2) was “significant decrease or suppression of phospho-PAX2 protein levels; also recorded: suppress phospho-PAX2 protein expression levels”. The “decrease in proliferation rate” value (DU145 cells; DU145) was 50% and the “effect on AngII-induced proliferation” value (DU145 cells; DU145, pre-treating for 30 min) was “suppressed the effect of AngII on proliferation”.

NC(=O)c1ncn([C@@H]2O[C@H](CO)[C@@H](O)[C@H]2O)c1N [AICAR, 5-Aminoimidazole-4-carboxamide-1-β-4-ribofuranoside] was tested, and the “PAX2 expression / protein levels” value (PAX2 protein) was “suppression of PAX2 pression expression; also recorded: suppress PAX2 protein levels”, the phospho-STAT3 protein levels (phospho-STAT3) was “suppressed; also recorded: suppress phospho-STAT3 protein levels” and the phospho-PAX2 protein levels (phospho-PAX2) was “suppression; also recorded: suppress phospho-PAX2 protein expression levels”.

In the case of Cc1cc(Cn2cnc3c2C[C@@H](C(=O)O)N(C(=O)C(c2ccccc2)c2ccccc2)C3)ccc1N(C)C [PD123319], the “increase in PAX2 expression” value (PAX2; DU145, 48 hours) was 7 fold and the “increase in PAX2 expression” value (PAX2; DU145, 96 hours) was 8 fold.

COc1cccc(-c2cc(=O)c3ccccc3o2)c1N [PD98059] was tested, and the “PAX2 expression / protein levels” value (PAX2 protein) was “decreased PAX2; also recorded: suppress PAX2 protein levels”, the phospho-STAT3 protein levels (phospho-STAT3) was “reduced phospho-STAT3 protein levels; also recorded: suppress phospho-STAT3 protein levels” and the phospho-PAX2 protein levels (phospho-PAX2) was “significant decrease or suppression of phospho-PAX2 protein levels; also recorded: suppress phospho-PAX2 protein expression levels”.

Source: patent US20140323349A1, “COMPOSITIONS AND METHODS FOR MONITORING AND DETECTING CANCEROUS CONDITIONS” (PHIGENIX, INC., priority 2011, published 2014)
